From the supplement of paper PMC10307832

Key:
Ibrutinib = compound: C=CC(=O)N1CCC[C@@H](n2nc(-c3ccc(Oc4ccccc4)cc3)c3c(N)ncnc32)C1 [Ibrutinib]; test: relative viability (nuclei count vs DMSO), 5 days (fraction); higher = more cells survive
Method in brief: (§1)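 Nuclei counted with MetaXpress define viability as the ratio of treated to vehicle wells, given as a median across plates. The lung cancer cell lines were in 1536-well plates, pinned with five √10-spaced library-drug doses and imaged at 4× after 5 days and Hoechst staining. Plates passed with control CV below 25% and at least one doubling.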

BMX-IN-1 = compound: C=CC(=O)Nc1cc(-n2c(=O)ccc3cnc4ccc(-c5ccc(NS(C)(=O)=O)cc5)cc4c32)ccc1C [BMX-IN-1]; test: as above
Method in brief: as §1

NCI-H522
relative viability (Ibrutinib; 0.005 µM): 0.796
relative viability (Ibrutinib; 0.01581 µM): 1.09
relative viability (Ibrutinib; 0.05 µM): 0.85
relative viability (Ibrutinib; 0.1581 µM): 0.752
relative viability (Ibrutinib; 0.5 µM): 0.76
relative viability (BMX-IN-1; 0.02 µM): 0.882
relative viability (BMX-IN-1; 0.2 µM): 0.906
relative viability (BMX-IN-1; 0.6325 µM): 1.04
relative viability (BMX-IN-1; 2 µM): 0.938

LCLC-97TM1
relative viability (Ibrutinib; 0.005 µM): 1.11
relative viability (Ibrutinib; 0.01581 µM): 0.888
relative viability (Ibrutinib; 0.05 µM): 0.906
relative viability (Ibrutinib; 0.1581 µM): 0.85
relative viability (Ibrutinib; 0.5 µM): 0.909
relative viability (BMX-IN-1; 0.02 µM): 1.04
relative viability (BMX-IN-1; 0.2 µM): 1.11
relative viability (BMX-IN-1; 0.6325 µM): 1.12
relative viability (BMX-IN-1; 2 µM): 1.02

NCI-H2023
relative viability (Ibrutinib; 0.005 µM): 0.89
relative viability (Ibrutinib; 0.01581 µM): 0.849
relative viability (Ibrutinib; 0.05 µM): 0.891
relative viability (Ibrutinib; 0.1581 µM): 1.03
relative viability (Ibrutinib; 0.5 µM): 0.943
relative viability (BMX-IN-1; 0.02 µM): 1.37
relative viability (BMX-IN-1; 0.2 µM): 1.19
relative viability (BMX-IN-1; 0.6325 µM): 1.13
relative viability (BMX-IN-1; 2 µM): 1.08

LC-2-ad
relative viability (Ibrutinib; 0.005 µM): 0.996
relative viability (Ibrutinib; 0.01581 µM): 0.973
relative viability (Ibrutinib; 0.05 µM): 0.941
relative viability (Ibrutinib; 0.1581 µM): 0.905
relative viability (Ibrutinib; 0.5 µM): 0.995
relative viability (BMX-IN-1; 0.02 µM): 1.1
relative viability (BMX-IN-1; 0.2 µM): 1.05
relative viability (BMX-IN-1; 0.6325 µM): 1.08
relative viability (BMX-IN-1; 2 µM): 1.02

NCI-H1975
relative viability (Ibrutinib; 0.005 µM): 0.906
relative viability (Ibrutinib; 0.01581 µM): 0.781
relative viability (Ibrutinib; 0.05 µM): 0.827
relative viability (Ibrutinib; 0.1581 µM): 0.91
relative viability (Ibrutinib; 0.5 µM): 0.419
relative viability (BMX-IN-1; 0.02 µM): 1.17
relative viability (BMX-IN-1; 0.2 µM): 0.965
relative viability (BMX-IN-1; 0.6325 µM): 1.14
relative viability (BMX-IN-1; 2 µM): 0.872

NCI-H1793
relative viability (Ibrutinib; 0.01581 µM): 0.831
relative viability (Ibrutinib; 0.05 µM): 0.732
relative viability (Ibrutinib; 0.1581 µM): 0.631
relative viability (Ibrutinib; 0.5 µM): 0.538
relative viability (BMX-IN-1; 0.02 µM): 1.13
relative viability (BMX-IN-1; 0.2 µM): 0.995
relative viability (BMX-IN-1; 0.6325 µM): 1.13
relative viability (BMX-IN-1; 2 µM): 1.05

Calu-6
relative viability (Ibrutinib; 0.005 µM): 1.1
relative viability (Ibrutinib; 0.01581 µM): 0.965
relative viability (Ibrutinib; 0.05 µM): 1
relative viability (Ibrutinib; 0.1581 µM): 1.01
relative viability (Ibrutinib; 0.5 µM): 1.03
relative viability (BMX-IN-1; 0.02 µM): 1.14
relative viability (BMX-IN-1; 0.2 µM): 1.06
relative viability (BMX-IN-1; 0.6325 µM): 1.2
relative viability (BMX-IN-1; 2 µM): 0.999

HCC-366
relative viability (Ibrutinib; 0.005 µM): 1
relative viability (Ibrutinib; 0.01581 µM): 0.962
relative viability (Ibrutinib; 0.05 µM): 0.968
relative viability (Ibrutinib; 0.1581 µM): 0.913
relative viability (Ibrutinib; 0.5 µM): 1
relative viability (BMX-IN-1; 0.02 µM): 1.13
relative viability (BMX-IN-1; 0.2 µM): 1.09
relative viability (BMX-IN-1; 0.6325 µM): 1.05
relative viability (BMX-IN-1; 2 µM): 1.04

NCI-H2347
relative viability (Ibrutinib; 0.005 µM): 1.01
relative viability (Ibrutinib; 0.01581 µM): 1.06
relative viability (Ibrutinib; 0.05 µM): 1.02
relative viability (Ibrutinib; 0.1581 µM): 0.812
relative viability (Ibrutinib; 0.5 µM): 1.04
relative viability (BMX-IN-1; 0.02 µM): 1.04
relative viability (BMX-IN-1; 0.2 µM): 0.967
relative viability (BMX-IN-1; 0.6325 µM): 1.14
relative viability (BMX-IN-1; 2 µM): 1.09

NCI-H2405
relative viability (Ibrutinib; 0.005 µM): 0.924
relative viability (Ibrutinib; 0.05 µM): 0.832
relative viability (Ibrutinib; 0.1581 µM): 0.713
relative viability (Ibrutinib; 0.5 µM): 0.973
relative viability (BMX-IN-1; 0.02 µM): 0.982
relative viability (BMX-IN-1; 0.2 µM): 1.01
relative viability (BMX-IN-1; 0.6325 µM): 1.09
relative viability (BMX-IN-1; 2 µM): 1.04

HCC-44
relative viability (Ibrutinib; 0.005 µM): 1.04
relative viability (Ibrutinib; 0.01581 µM): 0.995
relative viability (Ibrutinib; 0.05 µM): 0.994
relative viability (Ibrutinib; 0.1581 µM): 1.02
relative viability (Ibrutinib; 0.5 µM): 1.04
relative viability (BMX-IN-1; 0.02 µM): 1.03
relative viability (BMX-IN-1; 0.2 µM): 1.06
relative viability (BMX-IN-1; 0.6325 µM): 1.13
relative viability (BMX-IN-1; 2 µM): 0.998

NCI-H1563
relative viability (Ibrutinib; 0.005 µM): 0.922
relative viability (Ibrutinib; 0.01581 µM): 0.893
relative viability (Ibrutinib; 0.05 µM): 1
relative viability (Ibrutinib; 0.1581 µM): 0.977
relative viability (Ibrutinib; 0.5 µM): 0.861
relative viability (BMX-IN-1; 0.02 µM): 0.955
relative viability (BMX-IN-1; 0.2 µM): 0.943
relative viability (BMX-IN-1; 0.6325 µM): 1.04
relative viability (BMX-IN-1; 2 µM): 0.964

NCI-H1666
relative viability (Ibrutinib; 0.005 µM): 1.03
relative viability (Ibrutinib; 0.01581 µM): 0.984
relative viability (Ibrutinib; 0.05 µM): 0.851
relative viability (Ibrutinib; 0.1581 µM): 0.965
relative viability (Ibrutinib; 0.5 µM): 0.867
relative viability (BMX-IN-1; 0.02 µM): 1.05
relative viability (BMX-IN-1; 0.2 µM): 1.06
relative viability (BMX-IN-1; 0.6325 µM): 1.11
relative viability (BMX-IN-1; 2 µM): 1.1

NCI-H650
relative viability (Ibrutinib; 0.005 µM): 0.772
relative viability (Ibrutinib; 0.01581 µM): 0.991
relative viability (Ibrutinib; 0.05 µM): 0.802
relative viability (Ibrutinib; 0.1581 µM): 1.05
relative viability (Ibrutinib; 0.5 µM): 1.01
relative viability (BMX-IN-1; 0.02 µM): 0.905
relative viability (BMX-IN-1; 0.2 µM): 1.01
relative viability (BMX-IN-1; 0.6325 µM): 1.02
relative viability (BMX-IN-1; 2 µM): 0.951

EPLC-272H
relative viability (Ibrutinib; 0.005 µM): 0.681
relative viability (Ibrutinib; 0.01581 µM): 0.859
relative viability (Ibrutinib; 0.05 µM): 0.677
relative viability (Ibrutinib; 0.1581 µM): 0.686
relative viability (Ibrutinib; 0.5 µM): 0.664
relative viability (BMX-IN-1; 0.02 µM): 1.01
relative viability (BMX-IN-1; 0.2 µM): 0.954
relative viability (BMX-IN-1; 0.6325 µM): 0.874
relative viability (BMX-IN-1; 2 µM): 0.952

LXF-289
relative viability (Ibrutinib; 0.005 µM): 1.06
relative viability (Ibrutinib; 0.01581 µM): 1.01
relative viability (Ibrutinib; 0.05 µM): 1.04
relative viability (Ibrutinib; 0.1581 µM): 0.972
relative viability (Ibrutinib; 0.5 µM): 0.973
relative viability (BMX-IN-1; 0.02 µM): 1.06
relative viability (BMX-IN-1; 0.2 µM): 1.05
relative viability (BMX-IN-1; 0.6325 µM): 1.01
relative viability (BMX-IN-1; 2 µM): 1.02

LOU-NH91
relative viability (Ibrutinib; 0.005 µM): 0.801
relative viability (Ibrutinib; 0.01581 µM): 0.926
relative viability (Ibrutinib; 0.05 µM): 0.848
relative viability (Ibrutinib; 0.1581 µM): 0.884
relative viability (Ibrutinib; 0.5 µM): 0.678
relative viability (BMX-IN-1; 0.2 µM): 0.973
relative viability (BMX-IN-1; 0.6325 µM): 1.08
relative viability (BMX-IN-1; 2 µM): 0.989

LCLC-103H
relative viability (Ibrutinib; 0.005 µM): 0.966
relative viability (Ibrutinib; 0.01581 µM): 0.999
relative viability (Ibrutinib; 0.05 µM): 0.965
relative viability (Ibrutinib; 0.1581 µM): 0.882
relative viability (Ibrutinib; 0.5 µM): 0.946
relative viability (BMX-IN-1; 0.02 µM): 1.09
relative viability (BMX-IN-1; 0.2 µM): 1.1
relative viability (BMX-IN-1; 0.6325 µM): 1.07
relative viability (BMX-IN-1; 2 µM): 1.1

NCI-H1944
relative viability (Ibrutinib; 0.005 µM): 0.887
relative viability (Ibrutinib; 0.01581 µM): 0.851
relative viability (Ibrutinib; 0.05 µM): 0.858
relative viability (Ibrutinib; 0.1581 µM): 0.772
relative viability (Ibrutinib; 0.5 µM): 0.832
relative viability (BMX-IN-1; 0.02 µM): 1.07
relative viability (BMX-IN-1; 0.2 µM): 1.08
relative viability (BMX-IN-1; 0.6325 µM): 1.18
relative viability (BMX-IN-1; 2 µM): 0.947
